In patent publication US7696246B2 (Ligand Pharmaceuticals Incorporated, priority 1999, dated 2010):

Assays:
[1] = target: T1, human AR (Homo sapiens, UniProt P10275); test: Co-transfection assay, AR antagonist activity (CV-1 cells, in presence of DHT); assay type: cell-based; conditions: for AR Antagonist CV-1 Cells Efficacy (%): percent maximal inhibition, DHT at its EC50; for IC50: read-out: AR Antagonist CV-1 Cells Potency
T1 sequence (P10275 1-920): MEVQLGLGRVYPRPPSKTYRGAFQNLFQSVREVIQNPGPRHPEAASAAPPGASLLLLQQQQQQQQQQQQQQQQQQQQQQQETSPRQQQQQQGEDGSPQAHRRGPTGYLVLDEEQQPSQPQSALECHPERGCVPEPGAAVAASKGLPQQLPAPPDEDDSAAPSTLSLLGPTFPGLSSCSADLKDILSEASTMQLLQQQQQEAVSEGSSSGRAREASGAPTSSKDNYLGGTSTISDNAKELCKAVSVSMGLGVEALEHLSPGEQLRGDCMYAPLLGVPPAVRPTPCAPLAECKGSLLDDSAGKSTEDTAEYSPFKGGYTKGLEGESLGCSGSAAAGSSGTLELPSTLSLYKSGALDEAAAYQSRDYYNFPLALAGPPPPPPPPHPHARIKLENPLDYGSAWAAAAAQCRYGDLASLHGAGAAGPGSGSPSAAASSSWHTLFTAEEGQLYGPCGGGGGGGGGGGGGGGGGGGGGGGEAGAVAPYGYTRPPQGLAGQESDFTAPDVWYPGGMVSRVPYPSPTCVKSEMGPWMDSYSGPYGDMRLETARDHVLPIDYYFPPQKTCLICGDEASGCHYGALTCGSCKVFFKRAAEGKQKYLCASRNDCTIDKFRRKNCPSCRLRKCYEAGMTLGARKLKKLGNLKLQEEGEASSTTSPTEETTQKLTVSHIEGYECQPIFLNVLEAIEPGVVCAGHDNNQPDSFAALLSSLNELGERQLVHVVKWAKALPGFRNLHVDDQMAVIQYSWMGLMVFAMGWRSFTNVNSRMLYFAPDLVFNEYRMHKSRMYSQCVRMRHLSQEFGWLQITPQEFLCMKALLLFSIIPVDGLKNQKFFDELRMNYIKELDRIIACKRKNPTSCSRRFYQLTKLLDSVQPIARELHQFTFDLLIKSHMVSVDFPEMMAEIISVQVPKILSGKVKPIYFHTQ

[2] = target: T1, human AR; test: Co-transfection assay, AR agonist activity (CV-1 cells, MTV-LUC reporter); assay type: cell-based; conditions: CV-1 cells; for EC50: agonist potency EC50; for AR Agonist CV-1 Cells Efficacy (%): percent maximal response relative to reference agonist DHT
[3] = target: T1, human AR; test: AR whole cell competitive binding assay (COS-1 cells, 3H-DHT); conditions: 1 nM 3H-DHT, Cheng-Prusoff

SMILES	AR Antagonist CV-1 Cells Efficacy (%) [1]	IC50 [1]	EC50 [2]	AR Agonist CV-1 Cells Efficacy (%) [2]	Ki [3]
CC1CCCCN1c1ccc2[nH]c(=O)cc(C(F)(F)F)c2c1 (racemic) [Compound 314, (±)-6-(2-Methyl-1-piperidino)-4-trifluoromethyl-2(1H)-quinolinone]	na (na = not active (i.e. efficacy of <20 and potency of >10,000))	> 10000 nM	5.3 nM	83%	4.6 nM
Cn1c(=O)cc(C(F)(F)F)c2cc(N(CC(F)(F)F)CC(F)(F)F)ccc21 [Compound 297, 1-Methyl-6-(bis-2,2,2-trifluoroethyl)amino-4-trifluoromethyl-2(1H)-quinolinone]	43%	3.2 nM	22 nM	43%	58 nM
O=c1cc(C(F)(F)F)c2cc(N3CCCC3Cc3ccccc3)ccc2[nH]1 (racemic) [Compound 341, (±)-6-(2-Benzyl-1-pyrrolidino)-4-trifluoromethyl-2(1H)-quinolinone]	85%	15 nM	> 10000 nM		277 nM
CC1(C)CC(=O)Nc2ccc(N(CC(F)(F)F)CC(F)(F)F)cc21 [Compound 501, 3,4-Dihydro-4,4-dimethyl-6-(bis-N,N-2,2,2-trifluoroethyl)amino-2(1H)-quino-linone]	na (na = not active (i.e. efficacy of <20 and potency of >10,000))	> 10000 nM	5.8 nM	110%	16 nM
CCN(CC(C)C)c1ccc2[nH]c(=O)cc(C(F)(F)F)c2c1 [Compound 241, 6-(N-Ethyl-N-isobutyl)amino-4-trifluoromethyl-2(1H)-quinolinone]	na (na = not active (i.e. efficacy of <20 and potency of >10,000))	> 10000 nM	2.9 nM	73%	30 nM
O=c1cc(C(F)(F)F)c2cc(N(CC(F)(F)Cl)CC(F)(F)Cl)ccc2[nH]1 [Compound 225, 6-(bis-2-Chloro-2,2-difluoroethyl)amino-4-trifluoromethyl-2(1H)-quinolinone]	na (na = not active (i.e. efficacy of <20 and potency of >10,000))	> 10000 nM	0.4 nM	90%	0.9 nM
O=c1cc(C(F)(F)F)c2cc(N3CCCC[C@@H]3[C@@H](O)C(F)(F)F)ccc2[nH]1 [Compound 457, (+)-6-(2R-(1R-Hydroxy-2,2,2-trifluoroethyl)-1-piperidino)-4-trifluoromethyl-2(1H)-quinolinone]	na (na = not active (i.e. efficacy of <20 and potency of >10,000))	> 10000 nM	3 nM	85%	3.2 nM
O=c1cc(C(F)(F)F)c2cc(N3CCCCC3CCOCc3ccc(C(F)(F)F)cc3)ccc2[nH]1 (racemic) [Compound 449, (±)-6-(2-(4-Trifluoromethyl)benzyloxyethyl-1-piperidino)-4-trifluoromethyl-2(1H)-quinolinone]	na (na = not active (i.e. efficacy of <20 and potency of >10,000))	> 10000 nM	16 nM	83%	8.4 nM
O=c1cc(C(F)(F)F)c2cc(-c3ccc(Cl)cc3Cl)ccc2[nH]1 [Compound 753, 4-Trifluoromethyl-6-(2,4-dichlorophenyl)-2(1H)-quinolinone]	76%	51 nM	> 10000 nM		74 nM
CC(C)CN(CC(C)C)c1ccc2[nH]c(=O)cc(C(F)(F)F)c2c1 [Compound 221, 6-Diisobutylamino-4-trifluoromethyl-2(1H)-quinolinone]	na (na = not active (i.e. efficacy of <20 and potency of >10,000))	> 10000 nM	23 nM	114%	147 nM
CCCN(c1ccc2[nH]c(=O)cc(C(F)(F)F)c2c1)C(C)CC (racemic) [Compound 255, (±)-6-(N-Propyl-N-1-methylpropyl)amino-4-trifluoromethyl-2(1H)-quinolinone]	na (na = not active (i.e. efficacy of <20 and potency of >10,000))	> 10000 nM	25 nM	135%	67 nM
CCCCC1(O)C=C(c2ccc3c(c2)C(C)(C)OC(=O)N3)CCC1 (racemic) [Compound 694, (±)-6-(3-Butyl-3-hydroxy-1-)cyclohexenyl-1,4-dihydro-4,4-dimethyl-1,3-benzo[d]oxazin-2-one]	90%	64 nM	935 nM	25%	> 1000 nM
C=CCN(CC1CC1)c1ccc2[nH]c(=O)cc(C(F)(F)F)c2c1 [Compound 285, 6-(N-Allyl-N-cyclopropylmethyl)amino-4-trifluoromethyl-2(1H)-quinolinone]	na (na = not active (i.e. efficacy of <20 and potency of >10,000))	> 10000 nM	1 nM	111%	6.2 nM
CCCN(CC)c1ccc2[nH]c(=O)cc(C(F)(F)F)c2c1 [Compound 238, 6-(N-Ethyl-N-propyl)amino-4-trifluoromethyl-2(1H)-quinolinone]	na (na = not active (i.e. efficacy of <20 and potency of >10,000))	> 10000 nM	5.3 nM	77%	17 nM
O=c1cc(C(F)(F)F)c2cc(C3=CCCC3)ccc2[nH]1 [Compound 632, 6-Cyclopentenyl-4-trifluoromethyl-2(1H)-quinolinone]	75%	36 nM	> 10000 nM		112 nM
O=c1cc(C(F)(F)F)c2cc(N3CCCCCC3)ccc2[nH]1 [Compound 330, 6-(1-Azepano)-4-trifluoromethyl-2(1H)-quinolinone]	na (na = not active (i.e. efficacy of <20 and potency of >10,000))	> 10000 nM	3.9 nM	81%	55 nM
O=c1cc(C(F)(F)F)c2cc(-c3cccc(F)c3)ccc2[nH]1 [Compound 741, 4-Trifluoromethyl-6-(3-fluorophenyl)-2(1H)-quinolinone]	92%	27 nM	> 10000 nM		322 nM
CC(C)CN(c1ccc2[nH]c(=O)cc(C(F)(F)F)c2c1)C(C)C(F)(F)F (racemic) [Compound 290, (±)-6-(N-Isobutyl-N-2,2,2-trifluoroisopropyl)amino-4-trifluoromethyl-2(1H)-quinolinone]	50%	50 nM	32 nM	37%	> 1000 nM
O=c1cc(C(F)(F)F)c2cc(C3CCCCC3)ccc2[nH]1 [Compound 616, 6-Cyclohexyl-4-trifluoromethyl-2(1H)-quinolinone]	92%	17 nM	> 10000 nM		15 nM
COc1cccc(-c2ccc3[nH]c(=O)cc(C)c3c2)c1 [Compound 758, 4-Methyl-6-(3-methoxyphenyl)-2(1H)-quinolinone]	94%	87 nM	> 10000 nM		3.6 nM
CC(C)CN(CC(F)(F)F)c1ccc2[nH]c(=O)cc(C(F)(F)F)c2c1 [Compound 259, 6-(N-2,2,2-trifluoroethyl-N-isobutyl)amino-4-trifluoromethyl-2(1H)-quinolinone]	na (na = not active (i.e. efficacy of <20 and potency of >10,000))	> 10000 nM	1.9 nM	97%	6.3 nM
O=c1cc(C(F)(F)F)c2cc(NCC(Cl)(Cl)Cl)ccc2[nH]1 [Compound 227, 6-(N-2,2,2-Trichloroethyl)amino-4-trifluoromethyl-2(1H)-quinolinone]	73%	14 nM	> 10000 nM		38 nM
CCCN(CC1CC1)c1ccc2[nH]c(=O)cc(C(F)(F)F)c2c1 [Compound 254, 6-(N-Propyl-N-cyclopropylmethyl)amino-4-trifluoromethyl-2(1H)-quinolinone]	na (na = not active (i.e. efficacy of <20 and potency of >10,000))	> 10000 nM	0.9 nM	78%	12 nM
